The data set has as its system EpiSkin (reconstructed human epidermis). Description: In vitro dermal irritation EpiSkin test (MTT viability). On the procedure: The SkinEthic EpiSkin® test system has been validated by OECD test method (439) as an in vitro model to assess skin irritation potential. The test uses human keratinocytes derived from healthy donors, grown in vitro to reconstruct a functional model of the human epidermis.
EpiSkin® units were shipped on transport agar in sterile plates of 12 individual units. Upon delivery, the condition of the EpiSkin® was assessed by checking the pH and temperature indicators. EpiSkin® units were transferred to 12 well plates containing EpiSkin® maintenance medium (2 mL). […] The negative control was Dulbecco's phosphate buffered saline (PBS) and the positive control was an aqueous solution of sodium dodecyl sulphate (SDS, 5%, w/v).
The formulations were applied to the skin “without dilution”. An aliquot (10 μL) of the undiluted formulations and control substances were applied to three replicate EpiSkin® tissues using a positive displacement pipette. The formulations and controls were gently spread over the entire surface of the exposed skin using the applicator tip.
The EpiSkin® was exposed to the formulations and control substances for 15 min±30 s. The EpiSkin® surface was then rinsed with PBS (ca 25 mL) and returned to a well containing fresh Maintenance Medium (2 mL). […]
After the recovery period, EpiSkin® units were tapped dry and transferred to wells containing a solution of MTT in EpiSkin Assay Medium (2 mL, 0.3 mg/mL). […] The cell viability of each tissue was calculated from optical density absorption readings with reference to the negative controls, which were assigned the nominal value of 100% viability.
Standard statistical techniques were used to calculate ODblank mean: the average OD of the blank (acidified isopropanol containing) wells. The corrected OD for each sample or control was calculated by subtracting the value of ODblank mean from each reading: ODcorrected=ODraw−ODblank mean
The % Viability for each sample and positive control was calculated as follows: % Viability=(ODcorrected/mean ODnegative controls)×100 […]

The values that follow come from patent US11419814B2, “Transdermal compositions of ibuprofen and methods of use thereof” (Aponia Laboratories, Inc., priority 2011, dated 2022).

Several values for one entry are separate records, joined by “and”; a condition that tells them apart may be missing. Identical values can stand only once.

For the molecule `CCCCCCCCCCCCOS(=O)(=O)[O-].[Na+]` [Aqueous SDS Solution (5%, w/v), sodium dodecyl sulphate], under “mean of three tissues, irritant (GHS category 2) if viability is 50% or less”, the “Mean Relative Viability per Treatment (%)” value is on record as 23.36%. In addition, for the setting “per replicate tissue (Rep 1-3), 15 min exposure, 42 h recovery, sulphate”, the “Mean Relative Viability per Tissue (%)” value was 19.00% and 36.63% and 14.46%. The “Relative Viability (%)” value (single readings, two per replicate tissue (Rep 1-3), 10 μL undiluted, 15 min exposure, 42 h recovery, negative control = 100%, sulphate) was 19.05% and 18.95% and 36.18% and 37.08% and 13.81% and 15.12%.
